According to ChEMBL document CHEMBL4020831, “Discovery of GDC-0853: A Potent, Selective, and Noncovalent Bruton's Tyrosine Kinase Inhibitor in Early Clinical Development” (J Med Chem, 2018):
Calls of active or inactive are those of the source. The rule behind the calls is not given here.

Experiments:
Rattus norvegicus [1] = experiment: Time at which plasma concentration stays above IC70 for BTK autophosphorylation at Y223 in rat whole blood in Lewis rat collagen-induced arthritis model at 0.5 mg/kg, po qd measured during 24 hrs dosing
Salmonella typhimurium [2] = experiment: Genotoxicity in Salmonella typhimurium TA97a after 48 to 72 hrs in presence of liver S9 fraction by Ames test; type: toxicity; settings: salmonella enterica subsp. enterica serovar typhimurium
Rattus norvegicus [3] = experiment: Antiinflammatory activity in Lewis rat collagen-induced arthritis model assessed as reduction in ankle inflammation at 0.06 to 16 mg/kg, po administered qd for 16 days; type: functional, organism-based
Salmonella typhimurium [4] = experiment: Genotoxicity in Salmonella typhimurium TA1535 after 48 to 72 hrs in presence of liver S9 fraction by Ames test; type: toxicity; settings: salmonella enterica subsp. enterica serovar typhimurium
PBL = experiment: Genotoxicity in human PBL assessed as induction of micronuclei at 500 ug/ml in presence of rat liver S9 fraction by cytochalasin B-block method; type: toxicity, cell-based
Rattus norvegicus [5] = experiment: Time at which plasma concentration stays above in vitro IC70 for BTK autophosphorylation at Y223 in rat whole blood in Lewis rat collagen-induced arthritis model at 1 to 16 mg/kg, po qd measured during 24 hrs dosing
Salmonella typhimurium [6] = experiment: Genotoxicity in Salmonella typhimurium TA98 after 48 to 72 hrs in absence of liver S9 fraction by Ames test; type: toxicity; settings: salmonella enterica subsp. enterica serovar typhimurium
Salmonella typhimurium [7] = experiment: Genotoxicity in Salmonella typhimurium TA100 after 48 to 72 hrs in presence of liver S9 fraction by Ames test; type: toxicity; settings: salmonella enterica subsp. enterica serovar typhimurium
Cav1.2 [8] = biological target: T1, Cav1.2 (Homo sapiens, UniProt Q13936); experiment: Inhibition of human Cav1.2 expressed in CHO cells at 1 uM incubated for 3 to 5 mins by Qpatch clamp assay; type: cell-based; settings: CHO cells expressing human Cav1.2
T1 sequence (Q13936 whole entry): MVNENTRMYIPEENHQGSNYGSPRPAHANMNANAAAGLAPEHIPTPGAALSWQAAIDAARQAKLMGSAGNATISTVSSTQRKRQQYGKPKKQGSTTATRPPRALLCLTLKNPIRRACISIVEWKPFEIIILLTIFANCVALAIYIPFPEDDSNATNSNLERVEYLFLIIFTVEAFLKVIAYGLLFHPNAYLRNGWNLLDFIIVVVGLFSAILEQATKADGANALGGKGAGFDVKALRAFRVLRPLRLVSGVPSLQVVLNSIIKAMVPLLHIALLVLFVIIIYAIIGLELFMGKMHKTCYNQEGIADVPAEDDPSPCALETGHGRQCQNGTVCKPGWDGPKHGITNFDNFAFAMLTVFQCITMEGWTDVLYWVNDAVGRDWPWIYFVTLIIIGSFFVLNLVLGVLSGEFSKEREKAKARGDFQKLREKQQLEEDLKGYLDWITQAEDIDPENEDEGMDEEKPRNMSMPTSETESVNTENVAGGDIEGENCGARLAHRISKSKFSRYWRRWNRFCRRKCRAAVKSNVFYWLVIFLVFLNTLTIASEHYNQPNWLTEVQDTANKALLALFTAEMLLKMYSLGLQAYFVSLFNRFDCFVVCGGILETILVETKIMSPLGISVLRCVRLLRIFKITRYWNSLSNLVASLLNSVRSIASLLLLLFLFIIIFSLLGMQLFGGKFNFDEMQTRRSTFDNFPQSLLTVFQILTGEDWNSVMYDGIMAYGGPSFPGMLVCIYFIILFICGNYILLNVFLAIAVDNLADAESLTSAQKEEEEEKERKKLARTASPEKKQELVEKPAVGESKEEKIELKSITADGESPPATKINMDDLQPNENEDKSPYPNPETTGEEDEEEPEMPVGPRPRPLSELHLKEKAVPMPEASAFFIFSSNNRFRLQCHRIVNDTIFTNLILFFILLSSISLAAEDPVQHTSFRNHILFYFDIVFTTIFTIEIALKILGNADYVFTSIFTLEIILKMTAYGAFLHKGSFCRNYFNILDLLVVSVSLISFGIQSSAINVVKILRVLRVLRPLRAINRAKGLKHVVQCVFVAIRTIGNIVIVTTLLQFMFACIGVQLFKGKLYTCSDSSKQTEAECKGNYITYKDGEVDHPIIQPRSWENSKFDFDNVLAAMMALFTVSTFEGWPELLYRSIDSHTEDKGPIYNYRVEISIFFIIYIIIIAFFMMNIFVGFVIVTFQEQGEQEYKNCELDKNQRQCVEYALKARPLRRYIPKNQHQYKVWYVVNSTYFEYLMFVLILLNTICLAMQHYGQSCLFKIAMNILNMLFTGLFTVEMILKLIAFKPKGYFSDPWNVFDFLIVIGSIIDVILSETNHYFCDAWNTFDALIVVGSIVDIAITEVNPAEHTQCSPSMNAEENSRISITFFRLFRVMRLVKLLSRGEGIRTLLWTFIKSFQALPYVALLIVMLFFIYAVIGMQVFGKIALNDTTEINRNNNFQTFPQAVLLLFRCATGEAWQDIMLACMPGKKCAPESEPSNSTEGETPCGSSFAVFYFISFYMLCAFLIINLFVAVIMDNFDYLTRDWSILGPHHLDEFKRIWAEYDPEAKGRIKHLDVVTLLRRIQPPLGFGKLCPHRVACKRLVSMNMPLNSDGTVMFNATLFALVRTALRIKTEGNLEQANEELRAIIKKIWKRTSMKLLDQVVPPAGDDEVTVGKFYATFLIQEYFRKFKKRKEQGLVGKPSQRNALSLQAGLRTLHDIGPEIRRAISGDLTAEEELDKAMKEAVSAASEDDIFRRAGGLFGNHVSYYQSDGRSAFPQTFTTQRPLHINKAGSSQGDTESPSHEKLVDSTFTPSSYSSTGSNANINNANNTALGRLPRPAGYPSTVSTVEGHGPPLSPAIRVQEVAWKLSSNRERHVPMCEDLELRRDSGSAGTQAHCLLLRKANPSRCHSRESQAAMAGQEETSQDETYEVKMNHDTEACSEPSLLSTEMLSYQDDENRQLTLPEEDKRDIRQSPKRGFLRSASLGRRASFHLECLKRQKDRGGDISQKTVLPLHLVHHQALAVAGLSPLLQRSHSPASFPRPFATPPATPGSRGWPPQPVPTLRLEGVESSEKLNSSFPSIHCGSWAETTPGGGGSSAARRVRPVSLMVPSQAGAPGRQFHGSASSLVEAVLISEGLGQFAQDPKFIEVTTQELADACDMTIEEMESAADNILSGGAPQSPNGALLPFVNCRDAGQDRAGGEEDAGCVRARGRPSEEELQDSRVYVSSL

Rattus norvegicus [9] = experiment: Time at which plasma concentration stays above in vitro IC50 for BTK autophosphorylation at Y223 in rat whole blood in Lewis rat collagen-induced arthritis model at 1 to 16 mg/kg, po qd measured during 24 hrs dosing
Cav1.2 [10] = biological target: T1, Cav1.2; experiment: Inhibition of human Cav1.2 expressed in CHO cells at 10 uM incubated for 3 to 5 mins by Qpatch clamp assay; type: cell-based; settings: CHO cells expressing human Cav1.2
Rattus norvegicus [11] = experiment: Antiinflammatory activity in Lewis rat collagen-induced arthritis model assessed as reduction in ankle diameter AUC at 0.5 mg/kg, po administered bid for 16 days relative to control; type: functional; settings: 384 h

With `C[C@H]1CN(C2COC2)CCN1c1ccc(Nc2cc(-c3ccnc(N4CCn5c(cc6c5CC(C)(C)C6)C4=O)c3CO)cn(C)c2=O)nc1` [FENEBRUTINIB] the Time (Rattus norvegicus [1]) was 12 h, the Activity (Salmonella typhimurium [2]) was “Non-Toxic” and the Activity (Rattus norvegicus [3]) was “Active”. For the same compound, the Activity (Salmonella typhimurium [4]) was “Non-Toxic”, the Activity (PBL) was “Non-Toxic” and the Time (Rattus norvegicus [5]) was 12 h. The Activity (Salmonella typhimurium [6]) was “Non-Toxic”, the Activity (Salmonella typhimurium [7]) was “Non-Toxic” and the inhibition at 1 µM (Cav1.2 [8]) was 1.5%. For the same compound, the Time (Rattus norvegicus [9]) was 12 h, the inhibition at 10 µM (Cav1.2 [10]) was 3.8% and the inhibition in vivo at 0.5 mg/kg (Rattus norvegicus [11]) was 79%.
